Measurements taken from PubChem BioAssay (NCI).
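The compound was tested at five concentrations on cells cultured in 96-well plates, with a 48-hour exposure period. Here, GI50 denotes the concentration required for 50% inhibition of growth. TGI denotes the concentration required for complete inhibition of growth.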

What was measured:
Experiment in all cases: NCI anticancer screen, dose series, 48 h
DMS 114 small cell lung = tested on: DMS 114 small cell lung
LXFL 529 NSCLC = tested on: LXFL 529 NSCLC
XF 498 CNS = tested on: XF 498 CNS
HOP-18 NSCLC = tested on: HOP-18 NSCLC
KM20L2 colon = tested on: KM20L2 colon
DMS 273 small cell lung = tested on: DMS 273 small cell lung
SNB-78 CNS = tested on: SNB-78 CNS
DLD-1 colon = tested on: DLD-1 colon
RXF-631 renal = tested on: RXF-631 renal

SMILES	TGI (DMS 114 small cell lung) [µM]	TGI (LXFL 529 NSCLC) [µM]	TGI (XF 498 CNS) [µM]	TGI (HOP-18 NSCLC) [µM]	TGI (KM20L2 colon) [µM]	TGI (DMS 273 small cell lung) [µM]	TGI (SNB-78 CNS) [µM]	TGI (DLD-1 colon) [µM]	GI50 (XF 498 CNS) [µM]	TGI (RXF-631 renal) [µM]	GI50 (HOP-18 NSCLC) [µM]	GI50 (DLD-1 colon) [µM]	GI50 (KM20L2 colon) [µM]	GI50 (DMS 273 small cell lung) [µM]
NC1CCC2(O)c3ccccc3C2C1 (stereo not drawn)	> 100	> 100	> 100	> 100	> 100	> 100	> 100	–	–	–	–	–	–	–
Cc1cc(NC(=O)NC(=O)c2ccccc2NC(=O)CN(C)C)ccc1Oc1ncc(Br)cn1	35.7	> 100	> 100	–	34.7	> 100	> 100	> 100	–	–	–	–	–	–
CCOC(=O)CNC(=O)c1[nH]cnc1/N=N/N(C)C	> 100	> 100	–	–	–	> 100	–	> 100	–	–	–	–	–	–
COc1cccc(/C=N/[N-]C(N)=O)c1[O-].[Cu+2].[OH3+]	–	–	29.4	–	20.6	–	–	–	15.9	–	–	–	–	–
CCOC(=O)C(Cc1ccc(N=NN(C)C)cc1)NC(=O)CC1c2ccccc2-c2ccccc21 (stereo not drawn)	> 100	> 100	–	–	–	> 100	–	> 100	–	–	–	–	–	–
C/C(CCN(C)C)=N/O	20.7	4.72	33.6	29.6	22.8	18.3	51.7	15.8	–	–	–	–	–	–
CC1CC(c2ccccc2)=Nc2ccccc2S1 (stereo not drawn)	> 100	> 100	> 100	–	> 100	> 100	> 100	> 100	–	> 100	–	–	–	–
COCc1cc2c(s1)C(=O)C1=C(C2=O)C2(C=C(Br)C(=O)C(Br)=C2)CCN1	3.34	11.7	19.6	28.4	–	13.6	24.4	24.4	–	–	–	–	–	–
COc1c(OC2OC(CO)C(O)C(O)C2O)cc2c(c1OC)-c1ccc(OC)c(=O)cc1C(NC(C)=O)CC2 (stereo not drawn)	> 100	> 100	> 100	> 100	> 100	> 100	> 100	> 100	–	> 100	–	–	–	–
Cc1ccc(NC(=O)CC/C(CC(=O)C(C)(C)C)=N/NC(=O)c2cc3ccccc3cc2O)cc1C	> 100	> 100	–	> 100	> 100	–	> 100	> 100	–	> 100	–	–	–	–
CN(Cc1cnc2nc(N)nc(N)c2n1)c1ccc(C(=O)NC(CCC(=O)O)C(=O)O)c2ccccc12 (stereo not drawn)	–	–	–	–	–	–	–	–	–	–	0.0452	0.00257	0.00489	0.000946
O=C(O)C1CCC(=O)N1C(=O)COc1cc(Cl)c(Cl)cc1Cl (stereo not drawn)	> 100	> 100	> 100	–	> 100	> 100	> 100	–	–	> 100	–	–	–	–
COCOC1CCCC[C@@]1(OCCOCCO[C@@]1(c2ccccc2)CCCC[C@H]1OCOC)c1ccccc1 (stereo partly drawn)	> 100	> 100	> 100	> 100	> 100	> 100	> 100	> 100	–	–	–	–	–	–
CN1C(c2ccccc2)CC(O)CC1c1ccccc1 (stereo not drawn)	> 100	> 100	–	–	> 100	> 100	> 100	> 100	–	–	–	–	–	–
COc1ccc(/C(C=O)=C(\Cl)c2ccc(OC)c(OC)c2)cc1	> 100	> 100	50.2	> 100	> 100	> 100	> 100	> 100	–	> 100	–	–	–	–
